In patent US11180483B2, “Substituted reverse pyrimidine Bmi-1 inhibitors” (PTC Therapeutics, Inc., priority 2012, dated 2021):

Tested on: Bmi-1
Assay: Sandwich ELISA Assay (Bmi-1 ELISA) in HT-1080 cells
Assay type: cell-based
Procedure, shortened: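 Bmi-1 in lysates was measured by a three-antibody ELISA with TMB, OD450 minus OD570 reference, interpolated on a GST-tagged recombinant Bmi-1 standard curve, 0-8000 pg/mL. Lysates came from HT-1080 cells treated 40-48 h with compound, final DMSO 0.5%.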

Row | SMILES | EC50
1 | Cc1nc2ccccc2n1-c1nc(N)cc(Nc2ccc(N(C)C)cc2)n1 [Cpd 198, N-[4-(dimethylamino)phenyl]-2-(2-methyl-1H-benzimidazol-1-yl)pyrimidine-4,6-diamine] | 1 to 10 nM
2 | Cc1nc2c(F)cc(F)cc2n1-c1nc(N)cc(Nc2ccc(C(F)(F)F)cc2)n1 [Cpd 88, 2-(4,6-difluoro-2-methyl-1H-benzimidazol-1-yl)-N-[4-(trifluoromethyl)phenyl]pyrimidine-4,6-diamine] | 10 to 100 nM
3 | CCc1ccc2nc(C)n(-c3nc(N)cc(Nc4ccc(C(F)(F)F)cc4)n3)c2c1 [Cpd 87, 2-(6-ethyl-2-methyl-1H-benzimidazol-1-yl)-N-[4-(trifluoromethyl)phenyl]pyrimidine-4,6-diamine] | 100 to 3000 nM
4 | FC(F)(F)c1ccc(Nc2ccnc(-c3c(C(F)(F)F)nn4ccccc34)n2)cc1 [Cpd 56, N-[4-(trifluoromethyl)phenyl]-2-[2-(trifluoromethyl)pyrazolo[1,5-a]pyridin-3-yl]pyrimidin-4-amine] | 100 to 3000 nM
5 | Cc1ccc(Nc2ccnc(-c3c(C(F)(F)F)nc4ccccn34)n2)cc1 [Cpd 9, N-(4-methylphenyl)-2-[2-(trifluoromethyl)imidazo[1,2-a]pyridin-3-yl]pyrimidin-4-amine] | 1 to 10 nM
6 | CCc1nc2cc(F)ccc2n1-c1nc(N)c(F)c(Nc2ccc(C(F)(F)F)cc2)n1 [Cpd 162, 2-(2-ethyl-5-fluoro-1H-benzimidazol-1-yl)-5-fluoro-N-[4-(trifluoromethyl)phenyl]pyrimidine-4,6-diamine] | 10 to 100 nM
7 | Cc1nn2ccccc2c1-c1nc(N)c(F)c(Nc2ccc(C(F)(F)F)cc2)n1 [Cpd 177, 5-fluoro-2-(2-methylpyrazolo[1,5-a]pyridin-3-yl)-N-[4-(trifluoromethyl)phenyl]pyrimidine-4,6-diamine] | 100 to 3000 nM
8 | FC(F)(F)c1nc2ccccn2c1-c1nccc(Nc2ccc3c(c2)OCCO3)n1 [Cpd 29, N-(2,3-dihydro-1,4-benzodioxin-6-yl)-2-[2-(trifluoromethyl)imidazo[1,2-a]pyridin-3-yl]pyrimidin-4-amine] | 10 to 100 nM
9 | FC(F)(F)c1ccc(Nc2ccnc(-c3c(C(F)(F)F)nc4ccc(Br)cn34)n2)cc1 [Cpd 32, 2-[6-bromo-2-(trifluoromethyl)imidazo[1,2-a]pyridin-3-yl]-N-[4-(trifluoromethyl)phenyl]pyrimidin-4-amine] | 100 to 3000 nM
10 | Cc1ccc(Nc2nc(-n3c(C)nc4cc(F)c(F)cc43)nc(N)c2F)cc1 [Cpd 213, 2-(5,6-difluoro-2-methyl-1H-benzimidazol-1-yl)-5-fluoro-N-(4-methylphenyl)pyrimidine-4,6-diamine] | 1 to 10 nM
11 | CCOc1ccc(Nc2ccnc(-c3c(C(F)(F)F)nc4ccccn34)n2)cc1 [Cpd 37, N-(4-ethoxyphenyl)-2-[2-(trifluoromethyl)imidazo[1,2-a]pyridin-3-yl]pyrimidin-4-amine] | 10 to 100 nM
12 | Cc1nc2ccccc2n1-c1nc(NCCO)cc(Nc2ccc(C(F)(F)F)cc2)n1 [Cpd 57, 2-{[2-(2-methyl-1H-benzimidazol-1-yl)-6-{[4-(trifluoromethyl)phenyl]amino}pyrimidin-4-yl]amino}ethanol] | 100 to 3000 nM
13 | Cc1nc2cc(C#N)ccc2n1-c1nc(N)c(F)c(Nc2ccc(Cl)cc2)n1 [Cpd 230, 1-{4-amino-6-[(4-chlorophenyl)amino]-5-fluoropyrimidin-2-yl}-2-methyl-1H-benzimidazole-5-carbonitrile] | 100 to 3000 nM
14 | COc1ccc(Nc2nc(-n3c(C)nc4ccc(F)cc43)nc(N)c2F)cc1 [Cpd 179, 5-fluoro-2-(6-fluoro-2-methyl-1H-benzimidazol-1-yl)-N-(4-methoxyphenyl)pyrimidine-4,6-diamine] | 1 to 10 nM
15 | Cc1ccc(Nc2nc(-c3c(C(F)(F)F)nc4ccccn34)ncc2Cl)cc1 [Cpd 44, 5-chloro-N-(4-methylphenyl)-2-[2-(trifluoromethyl)imidazo[1,2-a]pyridin-3-yl]pyrimidin-4-amine] | 100 to 3000 nM

Next, values leading:

Row | EC50 | SMILES
16 | 100 to 3000 nM | Cc1nc2ccccn2c1-c1nccc(Nc2ccc3c(c2)OCCO3)n1 [Cpd 2, N-(2,3-dihydro-1,4-benzodioxin-6-yl)-2-(2-methylimidazo[1,2-a]pyridin-3-yl)pyrimidin-4-amine]
17 | 10 to 100 nM | COc1ccc(Nc2nc(-n3c(C)nc4ccc(OC)cc43)nc(N)c2F)cc1 [Cpd 249, 5-fluoro-2-(6-methoxy-2-methyl-1H-benzimidazol-1-yl)-N-(4-methoxyphenyl)pyrimidine-4,6-diamine]
18 | 10 to 100 nM | Cc1nc2ccccc2n1-c1nc(N)cc(Nc2ccc(OC(F)F)c(F)c2)n1 [Cpd 235, N-[4-(difluoromethoxy)-3-fluorophenyl]-2-(2-methyl-1H-benzimidazol-1-yl)pyrimidine-4,6-diamine]
19 | 10 to 100 nM | COc1ccc(Nc2ccnc(-c3c(C)nc4ccccn34)n2)cc1 [Cpd 4, N-(4-methoxyphenyl)-2-(2-methylimidazo[1,2-a]pyridin-3-yl)pyrimidin-4-amine]
20 | 100 to 3000 nM | COCCNc1cc(Nc2ccc(OC(F)F)cc2)nc(-n2c(C)nc3ccccc32)n1 [Cpd 59, N^4-[4-(difluoromethoxy)phenyl]-N^6-(2-methoxyethyl)-2-(2-methyl-1H-benzimidazol-1-yl)pyrimidine-4,6-diamine]
21 | 100 to 3000 nM | Cc1nn2ccccc2c1-c1nc(N)c(F)c(Nc2ccc(OC(F)F)cc2)n1 [Cpd 173, N-[4-(difluoromethoxy)phenyl]-5-fluoro-2-(2-methylpyrazolo[1,5-a]pyridin-3-yl)pyrimidine-4,6-diamine]
22 | 100 to 3000 nM | FC(F)(F)Oc1ccc(Nc2ccnc(-c3c(C(F)(F)F)nc4ccc(Cl)cn34)n2)cc1 [Cpd 14, 2-[6-chloro-2-(trifluoromethyl)imidazo[1,2-a]pyridin-3-yl]-N-[4-(trifluoromethoxy)phenyl]pyrimidin-4-amine]
23 | 10 to 100 nM | Nc1nc(-n2c(C3CC3)nc3ccccc32)nc(Nc2ccc(C(F)(F)F)cc2)c1F [Cpd 120, 2-(2-cyclopropyl-1H-benzimidazol-1-yl)-5-fluoro-N-[4-(trifluoromethyl)phenyl]pyrimidine-4,6-diamine]
24 | 100 to 3000 nM | COc1ccc2nc(C(F)(F)F)c(-c3nccc(Nc4ccc(C(F)(F)F)cc4)n3)n2c1 [Cpd 48, 2-[6-methoxy-2-(trifluoromethyl)imidazo[1,2-a]pyridin-3-yl]-N-[4-(trifluoromethyl)phenyl]pyrimidin-4-amine]
25 | 100 to 3000 nM | COc1ccc(Nc2ccnc(-n3c(C)nc4ccccc43)n2)cc1Cl [Cpd 40, N-(3-chloro-4-methoxyphenyl)-2-(2-methyl-1H-benzimidazol-1-yl)pyrimidin-4-amine]
26 | 100 to 3000 nM | Cc1nc2cc(F)ccc2n1-c1nc(N)c(F)c(Nc2ccc(Cl)cc2)n1 [Cpd 259, N-(4-chlorophenyl)-5-fluoro-2-(5-fluoro-2-methyl-1H-benzimidazol-1-yl)pyrimidine-4,6-diamine]
27 | 100 to 3000 nM | Cc1nc2ccc([N+](=O)[O-])cc2n1-c1nc(N)c(F)c(Nc2ccc(C(F)(F)F)cc2)n1 [Cpd 236, 5-fluoro-2-(2-methyl-6-nitro-1H-benzimidazol-1-yl)-N-[4-(trifluoromethyl)phenyl]pyrimidine-4,6-diamine]
28 | 100 to 3000 nM | Cc1nc2cc(F)c(F)cc2n1-c1nc(N)c(F)c(Nc2ccc(Cl)cc2)n1 [Cpd 215, N-(4-chlorophenyl)-2-(5,6-difluoro-2-methyl-1H-benzimidazol-1-yl)-5-fluoropyrimidine-4,6-diamine]
29 | 10 to 100 nM | Cc1nc2cc(F)cc(F)c2n1-c1nc(N)c(F)c(Nc2ccc(C(F)(F)F)cc2)n1 [Cpd 243, 2-(5,7-difluoro-2-methyl-1H-benzimidazol-1-yl)-5-fluoro-N-[4-(trifluoromethyl)phenyl]pyrimidine-4,6-diamine]
30 | 10 to 100 nM | Cc1nc2ccc(N)cc2n1-c1nc(N)c(F)c(Nc2ccc(OC(F)F)cc2)n1 [Cpd 257, 2-(6-amino-2-methyl-1H-benzimidazol-1-yl)-N-[4-(difluoromethoxy)phenyl]-5-fluoropyrimidine-4,6-diamine]
31 | 100 to 3000 nM | FC(F)(F)c1nc2cnccn2c1-c1nccc(Nc2ccc(Cl)cc2)n1 [Cpd 47, N-(4-chlorophenyl)-2-[2-(trifluoromethyl)imidazo[1,2-a]pyrazin-3-yl]pyrimidin-4-amine]
32 | 10 to 100 nM | Cc1nc2ccccc2n1-c1nc(N)cc(Nc2ccc(Br)cc2)n1 [Cpd 212, N-(4-bromophenyl)-2-(2-methyl-1H-benzimidazol-1-yl)pyrimidine-4,6-diamine]
33 | 1 to 10 nM | Cc1nc2ccccc2n1-c1nc(N)c(F)c(Nc2ccc3c(c2)OCO3)n1 [Cpd 203, N-(1,3-benzodioxol-5-yl)-5-fluoro-2-(2-methyl-1H-benzimidazol-1-yl)pyrimidine-4,6-diamine]
34 | 100 to 3000 nM | Cc1nc2ccc(C(F)(F)F)cn2c1-c1nccc(Nc2ccc(C(F)(F)F)cc2)n1 [Cpd 18, 2-[2-methyl-6-(trifluoromethyl)imidazo[1,2-a]pyridin-3-yl]-N-[4-(trifluoromethyl)phenyl]pyrimidin-4-amine]
35 | 100 to 3000 nM | Nc1nc(-n2c(C3CC3)nc3ccccc32)nc(Nc2ccc(OC(F)(F)F)cc2)c1F [Cpd 278, 2-(2-cyclopropyl-1H-benzimidazol-1-yl)-5-fluoro-N-[4-(trifluoromethoxy)phenyl]pyrimidine-4,6-diamine]
36 | 100 to 3000 nM | FC(F)(F)c1ccc(Nc2ccnc(-c3cnc4ccccn34)n2)cc1 [Cpd 118, 2-(imidazo[1,2-a]pyridin-3-yl)-N-[4-(trifluoromethyl)phenyl]pyrimidin-4-amine]
37 | 10 to 100 nM | COc1ccc(Nc2ccnc(-n3c(C(F)(F)F)nc4ccccc43)n2)cc1Cl [Cpd 42, N-(3-chloro-4-methoxyphenyl)-2-[2-(trifluoromethyl)-1H-benzimidazol-1-yl]pyrimidin-4-amine]
38 | 10 to 100 nM | Cc1nc2ncc(Cl)cc2n1-c1nc(N)c(F)c(Nc2ccc(OC(F)F)cc2)n1 [Cpd 115, 2-(6-chloro-2-methyl-1H-imidazo[4,5-b]pyridin-1-yl)-N-[4-(difluoromethoxy)phenyl]-5-fluoropyrimidine-4,6-diamine]
